According to patent US9394544B2, “Ameliorating oxidative stress in neurodegenerative disease via Nox1 targeting” (University of Central Florida Research Foundation, Inc., priority 2013, dated 2016):

System: rat SN
Test: Western blot / dot blot / protein carbonyl immunoblot of SN lysates, PQ rat model
Assay type: in vivo
Protocol: The experiments were performed on rats, in accordance with the National Institutes for Health Guide for the Care and Use of Laboratory Animals. All procedures were approved by the local Animal Care and Use Committee. Male Wistar rats (8-10 weeks; Charles River) were maintained in a temperature/humidity-controlled environment under a 12 h light/dark cycle with ad libitum access to food and water. As depicted in FIG. 13A, each animal received four intraperitoneal injections, separated by 1 d, of either vehicle (saline) or PQ (10 mg/kg body weight; b.w.), according to a previously published dose (Manning-Bog et al., 2002; Harraz et al., 2008; Cristovao et al., 2009). All animals were weighed at day 1 and 12. In the studies using the paradigm depicted in FIG. 13A, 4 weeks before starting PQ intraperitoneal injection, animals were stereotaxically injected with various viral constructs at the right SN using the following coordinates: mediolateral, +2.0; anteroposterior, −5.3; dorsoventral, −6.8. Animals were organized into four groups: vector+vehicle: stereotaxically injected with adeno-associated virus (AAV) particles containing a green fluorescent protein (GFP) vector (vector) and then intraperitoneally injected with saline (vehicle) (n=10); vector+PQ: stereotaxically injected with vector and then intraperitoneally injected with PQ (n=10); shNox1+PQ: stereotaxically injected with AAV particles harboring Nox1 shRNA and then intraperitoneally injected with PQ (n=10); shNox1+vehicle: stereotaxically injected with Nox1 shRNA and then intraperitoneally injected with vehicle (n=8). AAV containing GFP vector was used as a negative control. Five days after the last PQ intraperitoneal injection, animals were killed. For Western blot analysis, brains were collected and total protein lysates from SN were prepared. For immunohistochemical analysis, animals were intracardially perfused before collecting the brains.
For Western blot, brain tissues were lysed on ice in radioimmunoprecipitation assay buffer containing 50 mMTris/HCl, pH 8.0, 150 mM NaCl, 2 mM sodium orthovanadate, 1% Nonidet-P40 (NP-40), 0.5% sodium deoxycholate, and 0.1% SDS, containing 1% of a protease inhibitor mixture (AEBSF, pepstatinA, E-64, bestatin, leupeptin, and aprotinin). The soluble fraction was obtained and equal amounts of cell lysate protein were loaded in each lane of a 12% SDS-PAGE or 4/10% to 20% polyacrylamide gel. After electrophoresis and transfer onto a polyvinylidene difluoride (PVDF) membrane, specific protein bands were detected using appropriate primary antibodies (rabbit anti-Nox1, rabbit anti-α-synuclein, mouse anti-Ubiquitin, mouse anti-tyrosine hydroxylase (TH), and mouse anti-β-actin) and secondary antibodies conjugated to alkaline phosphatase or […] peroxidase (anti-rabbit or anti-mouse) followed by Enhanced Chemifluorescence (ECF) detection or Enhanced Chemiluminescence (ECL).
For dot blot, brain tissues were homogenized in a buffer containing 0.32 M sucrose, 1 mM NaHCO3, 1 mM MgCl2, 0.5 mM CaCl2, and 1% of a protease inhibitor mixture (AEBSF, pepstatinA, E-64, bestatin, leupeptin, and aprotinin). The soluble fraction was obtained by centrifugation at 1000×g and 5 μl of each sample, containing the same amount of protein, was spotted in a PVDF membrane. Membrane was air dried for 4 h and blocked overnight at 4° C. in 5% nonfat dry milk TBST (10 mM Tris-HCl, pH 7.8, 100 mM NaCl, 0.05% Tween 20) solution. Protein spots were detected using the primary antibody, rabbit anti-A11 oligomer (0.5 μg/ml) from Invitrogen, and secondary antibody conjugated to […] peroxidase (anti-rabbit) followed by ECL detection.
The levels of protein carbonyl were measured in protein extracts from the SN tissues, using the OxiSelect Protein Carbonyl Immunoblot Kit (Cell Biolabs), according to the manufacturer's instructions, with small modifications. […]

Which results are given for `C[n+]1ccc(-c2cc[n+](C)cc2)cc1` [PQ, paraquat]?
increase in protein carbonyl levels after PQ exposure (ipsilateral SN): 95%; increase in ubiquitin protein levels, vector+PQ vs vector+vehicle (ipsilateral SN): 43%; increase in α-synuclein protein levels, vector+PQ vs vector+vehicle (ipsilateral SN, Western blot): 54%; increase in A11-positive oligomers, vector+PQ vs vector+vehicle (ipsilateral SN, dot blot): 68%; TH protein levels compared with vector+vehicle (ipsilateral SN, vector+PQ group, or Nox1 knocked down before PQ): 65%; Nox1 protein level in the SN, higher than vehicle group (rats, PQ 10 mg/kg i.p. x4): 58%; increase in α-synuclein protein levels in the SN (Western blot) (rats, PQ 10 mg/kg i.p. x4, vs vehicle): 50%; Nox1 protein, higher than vector+vehicle (vector+PQ group, ipsilateral SN): 70%
